US6986997B1, “Method for screening using an OAT1 transporter protein” (Fuji Bio Medix Co., Ltd., priority 1997, dated 2006)
Read-outs that look alike come from different tables or passages of the source.

Key:
[1] = tested on: basolateral organic anion transport system; details: Ullrich and Rumrich, Am. J. Physiol. 254, F453-462, 1988; read-out: Km value previously reported for the basolateral organic anion transport system; cited from earlier work
rat OAT1 [2] = target: T1, rat OAT1 (Rattus norvegicus, UniProt O35956); test: Uptake of radio labeled substances into oocytes expressing OAT1; type: cell-based
T1 construct: with full-length OAT1 cDNA labeled with; expressed in transfected cells; host or cells: Xenopus laevis oocytes injected with in vitro transcribed cRNA
T1 sequence (O35956 1-551): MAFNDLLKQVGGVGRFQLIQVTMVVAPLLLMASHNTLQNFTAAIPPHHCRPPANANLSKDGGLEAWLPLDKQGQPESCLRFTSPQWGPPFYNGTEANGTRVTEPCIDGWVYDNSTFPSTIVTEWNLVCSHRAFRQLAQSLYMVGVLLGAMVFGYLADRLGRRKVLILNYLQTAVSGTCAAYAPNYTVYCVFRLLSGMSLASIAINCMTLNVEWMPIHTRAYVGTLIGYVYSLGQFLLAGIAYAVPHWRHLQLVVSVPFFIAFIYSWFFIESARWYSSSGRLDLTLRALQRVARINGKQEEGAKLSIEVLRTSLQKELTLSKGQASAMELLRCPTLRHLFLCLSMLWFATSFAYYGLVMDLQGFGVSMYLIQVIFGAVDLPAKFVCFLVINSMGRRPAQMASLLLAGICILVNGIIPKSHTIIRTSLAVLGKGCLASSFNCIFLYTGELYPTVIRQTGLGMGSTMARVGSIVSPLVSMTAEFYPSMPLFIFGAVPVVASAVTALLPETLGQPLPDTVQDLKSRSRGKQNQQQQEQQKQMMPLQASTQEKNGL
Excerpt: Several radio labeled compounds were examined whether they are taken up into oocytes via OAT1.
Control oocytes were those which were not injected with cRNA.

rat OAT1 [3] = target: T1, rat OAT1; test: Cis-inhibition of 14C-PAH uptake in oocytes injected with rat OAT1 cRNA; type: cell-based; details: 2 μM 14C-PAH, 2 mM non-labeled substance, ND96 solution; for inhibition at 1 h, 2 mM: rat, oocytes injected with rat OAT1 cRNA, probe 14C-PAH (p-aminohippurate), read-out: inhibition of OAT1-mediated 14C-PAH uptake
[4] = versus control oocytes not injected with cRNA

SMILES | transport of radio labeled substance into oocytes expressing OAT1 (rat OAT1 [2]; [4]) | cis-inhibitory effect on OAT1-mediated 14C-PAH uptake (in words) (rat OAT1 [3]) | inhibition at 1 h, 2 mM (rat OAT1 [3]) [%] | other results
Nc1ccc(C(=O)NCC(=O)O)cc1 [PAH, para-aminohippurate] | – | – | – | Km [1]: 80 µM
C[C@H](CCC(=O)NCCS(=O)(=O)O)[C@H]1CC[C@H]2[C@@H]3[C@H](O)C[C@@H]4C[C@H](O)CC[C@]4(C)[C@H]3C[C@H](O)[C@]12C [^3H-taurocholic acid, taurocholic acid] | – | – | – | transport of radio labeled substance into oocytes expressing OAT1 (rat OAT1 [2]): not detected
CC[N+](CC)(CC)CC [^14C-TEA, tetraethylammonium, reference compound] | not detected | – | – | –
Nc1ncnc2c1ncn2[C@@H]1O[C@@H]2COP(=O)(O)O[C@H]2[C@H]1O [cyclic-AMP] | – | inhibited | – | transport of radio labeled substance into oocytes expressing OAT1 (rat OAT1 [2]): transported
Nc1nc2c(ncn2[C@@H]2O[C@@H]3COP(=O)(O)O[C@H]3[C@H]2O)c(=O)[nH]1 [cyclic-GMP] | transported | inhibited | – | –
C=C(CC)C(=O)c1ccc(OCC(=O)O)c(Cl)c1Cl [ethacrynic acid] | – | – | > 85 | –
COc1ccc2c(c1)c(CC(=O)O)c(C)n2C(=O)c1ccc(Cl)cc1 [indomethacin] | – | – | > 85 | –
CCn1cc(C(=O)O)c(=O)c2ccc(C)nc21 [nalidixic acid] | – | – | > 85 | –
O=c1[nH]c(=O)c2[nH]c(=O)[nH]c2[nH]1 [uric acid] | transported | inhibited | – | –
CCCC(CCC)C(=O)O [valproic acid] | – | – | > 85 | –
